From patent publication US9598365B2, “Method for synthesizing cycloalkanyl[b]indoles, cycloalkanyl[b]benzofurans, cycloalkanyl[b]benzothiophenes, compounds and methods of use” (Trustees of Dartmouth College, priority 2012, dated 2017)
“And” between values parts separate entries of the source, which are not always exact repeats. Equal values may be shown once. Values belong to the compound of their own block, whether it stands above or below them.

Tests used:
hCGRP1 = hCGRP1 (Homo sapiens, UniProt O60894+Q16602); assay: CGRP receptor antagonist, hCGRP1 antagonism; format: cell-based
hCGRP1, sequence (Q16602 23-461): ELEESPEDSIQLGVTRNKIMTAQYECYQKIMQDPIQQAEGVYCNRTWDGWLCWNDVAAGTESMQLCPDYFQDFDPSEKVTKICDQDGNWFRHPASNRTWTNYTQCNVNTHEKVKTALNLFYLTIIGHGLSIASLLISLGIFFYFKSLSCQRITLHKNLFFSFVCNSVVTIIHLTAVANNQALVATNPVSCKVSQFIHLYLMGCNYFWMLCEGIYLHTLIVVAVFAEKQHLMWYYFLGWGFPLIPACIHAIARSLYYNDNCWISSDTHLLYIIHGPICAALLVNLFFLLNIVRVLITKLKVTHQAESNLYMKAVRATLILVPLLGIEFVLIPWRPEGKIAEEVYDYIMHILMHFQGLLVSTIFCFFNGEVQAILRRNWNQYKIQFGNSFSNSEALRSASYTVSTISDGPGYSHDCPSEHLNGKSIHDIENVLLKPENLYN
hCGRP1, sequence (O60894 27-148 partner): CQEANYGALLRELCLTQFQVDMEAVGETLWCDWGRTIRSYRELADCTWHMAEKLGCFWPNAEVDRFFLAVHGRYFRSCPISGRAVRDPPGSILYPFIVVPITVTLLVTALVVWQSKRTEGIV
Source text: (§1) Selected compounds of this invention were screened for K-Ras Wnt synthetic lethal, anti-angiogenic activity, Wnt pathway modulatory activity, insulin and GLP-1 secretion modulatory activity, GPR119 receptor agonist activity, mGlu2R antagonist activity, CGRP receptor antagonist activity, Apelin receptor agonist activity and hexokinase 2 inhibitory activity using the PD^2 and TD^2 Screening Panel (Eli Lilly & Company). See Lee, et al. (2011) J. Biomol. Screen. 16:588-602.

Angio Tube Area = assay: Anti-angiogenic activity, Angio Tube Area; format: cell-based; conditions: read-out: Angio Tube Area % Inhibit
Source text: as §1

RKO = assay: K-Ras Wnt synthetic lethal, RKO KrasSL; format: cell-based; conditions: Homo sapiens, average of three independent experiments, read-out: RKO KrasSL % Inhibit
Source text: as §1

Pituitary Cells = assay: Secondary assay, pituitary cells growth hormone secretion; format: cell-based; conditions: @ 3.3 μM
Protocol: (§2) In light of the above results, additional compounds (Table 7) were prepared and phenotypic assays were carried out using hNCI-H716 and mSTC-1 cell lines to monitor GLP-1 secretion (single point (SP) and concentration response curves (CRC)) (Table 8), as well as a secondary assay with pituitary cells (Table 9).

hMGLUR2 = hMGLUR2 (Homo sapiens, UniProt Q14416); assay: mGlu2R antagonist, hMGLUR2; format: cell-based
hMGLUR2, sequence (Q14416 19-872): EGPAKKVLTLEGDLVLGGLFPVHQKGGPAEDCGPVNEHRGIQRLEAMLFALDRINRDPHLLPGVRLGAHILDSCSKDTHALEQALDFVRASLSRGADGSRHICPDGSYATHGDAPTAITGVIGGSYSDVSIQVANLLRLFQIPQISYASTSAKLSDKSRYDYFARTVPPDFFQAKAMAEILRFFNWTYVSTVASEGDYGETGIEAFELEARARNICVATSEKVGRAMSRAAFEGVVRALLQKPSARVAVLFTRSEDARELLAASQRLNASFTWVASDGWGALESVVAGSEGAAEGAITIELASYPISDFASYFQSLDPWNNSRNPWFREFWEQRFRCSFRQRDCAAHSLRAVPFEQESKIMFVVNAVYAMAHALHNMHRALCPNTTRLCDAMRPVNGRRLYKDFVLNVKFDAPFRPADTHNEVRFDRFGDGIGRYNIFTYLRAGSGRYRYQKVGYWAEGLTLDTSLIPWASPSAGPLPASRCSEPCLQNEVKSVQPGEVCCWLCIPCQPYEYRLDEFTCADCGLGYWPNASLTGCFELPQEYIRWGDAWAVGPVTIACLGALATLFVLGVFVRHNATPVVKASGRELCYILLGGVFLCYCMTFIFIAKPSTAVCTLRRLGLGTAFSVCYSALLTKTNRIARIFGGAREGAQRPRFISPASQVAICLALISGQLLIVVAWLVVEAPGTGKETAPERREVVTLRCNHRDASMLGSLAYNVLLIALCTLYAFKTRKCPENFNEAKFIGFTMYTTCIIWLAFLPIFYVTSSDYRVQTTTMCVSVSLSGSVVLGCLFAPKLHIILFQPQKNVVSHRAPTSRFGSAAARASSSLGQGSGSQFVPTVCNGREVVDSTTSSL
Source text: as §1

hApelin = biological target: T1, hApelin (Homo sapiens, UniProt P35414); assay: Apelin receptor agonist, hApelin agonism; format: cell-based; conditions: @ 30 μM
T1 sequence (P35414 1-380): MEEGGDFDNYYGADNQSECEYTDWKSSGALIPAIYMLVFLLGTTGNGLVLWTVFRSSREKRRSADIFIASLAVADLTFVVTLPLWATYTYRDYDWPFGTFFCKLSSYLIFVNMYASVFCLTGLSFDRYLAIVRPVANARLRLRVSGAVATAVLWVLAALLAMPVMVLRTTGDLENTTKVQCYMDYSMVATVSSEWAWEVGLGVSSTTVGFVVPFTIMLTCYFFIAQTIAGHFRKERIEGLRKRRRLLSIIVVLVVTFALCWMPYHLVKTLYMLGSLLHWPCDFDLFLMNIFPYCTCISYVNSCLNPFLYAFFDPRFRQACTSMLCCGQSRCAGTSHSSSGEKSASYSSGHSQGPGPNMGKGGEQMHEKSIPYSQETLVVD
Source text: as §1

Insulin Secretion = assay: Insulin secretion, Secretion Hi Gluc; format: cell-based
Source text: as §1

mSTC-1 [1] = assay: mSTC-1 GLP-1 secretion; format: cell-based; conditions: for EC50: concentration response curve, read-out: Primary CRC (EC50, μM) mSTC
Protocol: as §2

SNU-C1 = assay: K-Ras Wnt synthetic lethal, SNU-C1 KrasSL; format: cell-based; conditions: Homo sapiens, read-out: SNU-C1 KrasSL % Inhibit
Source text: as §1

hNCI-H716 [2] = assay: hNCI-H716 GLP-1 secretion; format: cell-based; conditions: for activation at 2 µM / activation at 20 µM / Primary SP hNCI (% Stim.): single point; for activation at 2 µM / activation at 20 µM: read-out: Primary SP hNCI (% Stim.)
Source text: as §1, §2

hHK2 = biological target: T2, hHK2 (Homo sapiens, UniProt P52789); assay: Hexokinase 2 inhibitor, hHK2 ADP-FP; format: biochemical
T2 sequence (P52789 1-917): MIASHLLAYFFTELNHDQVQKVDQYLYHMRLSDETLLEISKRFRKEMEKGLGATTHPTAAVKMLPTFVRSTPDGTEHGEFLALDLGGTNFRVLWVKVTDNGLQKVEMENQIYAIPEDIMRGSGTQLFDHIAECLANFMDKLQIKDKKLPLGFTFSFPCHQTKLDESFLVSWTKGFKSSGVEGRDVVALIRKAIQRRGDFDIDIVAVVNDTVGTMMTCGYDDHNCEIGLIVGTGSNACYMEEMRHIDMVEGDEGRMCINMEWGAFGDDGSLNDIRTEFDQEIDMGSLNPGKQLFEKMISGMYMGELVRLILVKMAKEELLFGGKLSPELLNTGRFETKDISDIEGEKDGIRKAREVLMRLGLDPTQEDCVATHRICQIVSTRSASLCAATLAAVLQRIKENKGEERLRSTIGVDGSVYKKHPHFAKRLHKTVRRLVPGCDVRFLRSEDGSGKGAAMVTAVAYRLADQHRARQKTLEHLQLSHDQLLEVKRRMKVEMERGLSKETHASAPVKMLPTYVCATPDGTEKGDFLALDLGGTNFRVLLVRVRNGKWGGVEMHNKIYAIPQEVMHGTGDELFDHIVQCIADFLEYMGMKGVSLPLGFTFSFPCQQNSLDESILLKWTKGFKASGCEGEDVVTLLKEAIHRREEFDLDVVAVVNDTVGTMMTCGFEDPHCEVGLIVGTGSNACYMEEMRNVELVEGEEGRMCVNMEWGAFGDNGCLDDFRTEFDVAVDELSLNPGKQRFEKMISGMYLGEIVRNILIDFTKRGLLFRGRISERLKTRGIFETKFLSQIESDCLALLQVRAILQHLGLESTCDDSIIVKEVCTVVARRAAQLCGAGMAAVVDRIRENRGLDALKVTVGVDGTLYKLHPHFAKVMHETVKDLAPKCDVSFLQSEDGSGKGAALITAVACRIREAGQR
Source text: as §1

Co1o320 = assay: K-Ras Wnt synthetic lethal, Co1o320 KrasSL; format: cell-based; conditions: read-out: Co1o320 KrasSL % Inhibit
Source text: as §1

Wnt Pathway = assay: Wnt pathway modulatory activity, Osteo bCat; format: cell-based
Source text: as §1

hGPR119 = biological target: T3, hGPR119 (Homo sapiens, UniProt Q8TDV5); assay: GPR119 receptor agonist, hGPR119 agonism; format: cell-based; conditions: @ 10 μM
T3 sequence (Q8TDV5 1-335): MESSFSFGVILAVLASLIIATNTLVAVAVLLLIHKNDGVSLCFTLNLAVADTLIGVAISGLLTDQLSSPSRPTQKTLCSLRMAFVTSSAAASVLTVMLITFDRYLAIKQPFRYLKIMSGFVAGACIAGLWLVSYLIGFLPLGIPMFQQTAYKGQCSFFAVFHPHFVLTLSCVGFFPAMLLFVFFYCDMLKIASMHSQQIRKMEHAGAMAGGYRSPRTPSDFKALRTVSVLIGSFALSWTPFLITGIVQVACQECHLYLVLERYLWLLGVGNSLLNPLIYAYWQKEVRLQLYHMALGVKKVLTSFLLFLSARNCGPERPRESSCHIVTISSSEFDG
Source text: as §1

HCT116 = assay: K-Ras Wnt synthetic lethal, HCT116 KrasSL; format: cell-based; conditions: Homo sapiens, HCT-116, read-out: HCT116 KrasSL % Inhibit
Source text: as §1

GIP = assay: Plasma GIP response to oral compound in mice; format: in vivo, Mice (male C57BL/6); conditions: oral 100 mg/kg, plasma 30 minutes post-dose
Protocol: (§3) Mice (male C57BL/6, 8-10 weeks of age) were fasted overnight by being placed in a clean cage without food. The next day, all mice were weighed and assigned to groups of similar body weights. Test compounds were formulated in 1% HEC, 0.25% TWEEN 80, 0.05% antifoam (vehicle control). Compounds 11ls and llu were orally dosed (100 mg/kg) and cardiac sticks were done on CO2 euthanized mice at 30 minutes post-dose. Blood (500+μL whole blood) from the cardiac stick was placed in chilled EDTA-plasma tubes with inhibitors, DPP4 inhibitor (5 μL/500 μL blood) and aprotinin (bovine lung, […]/500 μL blood), and stored on ice. Plasma was separated by centrifugation and aliquoted for compound exposure to total GIP and GLP-1 (X-36 amide). Plates for compound exposure were analyzed for absorption, distribution, metabolism, and excretion, while conventional kits were used for GLP-1 (x-36) amide (Mesoscale) and GIP (Millipore) analyses.

hNCI-H716 [3] = assay: hNCI basal LDH secretion; format: cell-based; conditions: read-out: Primary CRC (EC50, μM) hNCI Basal
Protocol: as §2

[4] = Plasma compound exposure after oral dosing in mice; format: in vivo, Mice (male C57BL/6); conditions: oral 100 mg/kg, 30 minutes post-dose
Protocol: as §3

GLP-1 (X-36 amide) = assay: Plasma GLP-1 response to oral compound in mice; format: in vivo, Mice (male C57BL/6); conditions: oral 100 mg/kg, plasma 30 minutes post-dose
Protocol: as §3

mSTC-1 [5] = assay: mSTC LDH secretion; format: cell-based; conditions: read-out: Primary CRC (EC50, μM) mSTC LDH
Protocol: as §2

[6] = GLP-1 secretion, concentration response curve, read-out: Primary CRC (EC50, μM) hNCI

inhibition at 30 µM (hCGRP1): 67.7%
inhibition at 50 µM (hMGLUR2): -19.7%
hApelin agonism % Stimulation (hApelin): −52.8%
EC50 (mSTC-1 [1]): 2.4 µM and 4.1 µM and 2.2 µM
EC50 (hNCI-H716 [2]; [6]): 29.1 µM and 17.6 µM and 16.4 µM
EC50 (hNCI-H716 [2]; average of three independent experiments, read-out: hNCI GLP-1 Secretion EC50): 29.1 µM
EC50 (hNCI-H716 [2]; secretion and/or production of GLP-1, read-out: EC50 values (Table 6)): 29 µM
inhibition at 20 µM (hHK2): 3.2%
hGPR119 agonism % Stimulation (hGPR119): −2.3%
Compound: CC1(C)c2c([nH]c3ccc(Br)cc23)C2C=CC1C2 (centres unmarked) [Compound 11t]
inhibition at 2 µM (Angio Tube Area; @ 2 μM): 8%
inhibition at 10 µM (Angio Tube Area; @ 10 μM): 38%
inhibition at 0.2 µM (RKO; @ 0.2 μM): -5.8%
inhibition at 2 µM (RKO; @ 2 μM): 17.6%
inhibition at 20 µM (RKO; @ 20 μM): 102%
Pituitary Cells (Growth Hormone Secretion, % Stimulation) (Pituitary Cells): −12.6% and −7.1%
Secretion Hi Gluc % Stimulation (Insulin Secretion; @ 2 μM): 0.1%
Secretion Hi Gluc % Stimulation (Insulin Secretion; @ 10 μM): 19.1%
inhibition at 0.2 µM (SNU-C1; @ 0.2 μM): -1%
inhibition at 2 µM (SNU-C1; @ 2 μM): -19.1%
inhibition at 20 µM (SNU-C1; @ 20 μM): 107%
activation at 2 µM (hNCI-H716 [2]; 2 μM, GLP-1 secretion): 0%
activation at 20 µM (hNCI-H716 [2]; 20 μM, GLP-1 secretion): 35.2%
hNCI GLP-1 Secretion % Stimulation (hNCI-H716 [2]; @ 2 μM): 0%
hNCI GLP-1 Secretion % Stimulation (hNCI-H716 [2]; @ 20 μM): 35.2%
inhibition at 0.2 µM (Co1o320; @ 0.2 μM): -6.6%
inhibition at 2 µM (Co1o320; @ 2 μM): 23.1%
inhibition at 20 µM (Co1o320; @ 20 μM): 152%
Osteo bCat % Stimulation (Wnt Pathway; @ 2 μM): 1.8%
Osteo bCat % Stimulation (Wnt Pathway; @ 10 μM): 5.5%
inhibition at 0.2 µM (HCT116; @ 0.2 μM): 5.3%
inhibition at 2 µM (HCT116; @ 2 μM): -11.5%
inhibition at 20 µM (HCT116; @ 20 μM): 104%

EC50 (mSTC-1 [1]): 2 µM and 3.2 µM
EC50 (hNCI-H716 [3]): 35.8 µM
mean (±standard deviation) plasma levels [4]: 201.6 ± 37.24 ng/mL
Compound: CC1(C)c2c([nH]c3ccc(I)cc23)C2C=CC1C2 (centres unmarked) [Compound 11u]
Primary SP hNCI (% Stim.) (hNCI-H716 [2]; 2 μM, GLP-1 secretion): 0%
Primary SP hNCI (% Stim.) (hNCI-H716 [2]; 20 μM, GLP-1 secretion): 57%
Avg. GIP (pg/mL) ±SEM (GIP): 26.23 ± 10.35 pg/mL
Avg. GLP-1 (pg/mL) ±SEM (GLP-1 (X-36 amide)): 7.66 ± 0.89 pg/mL

EC50 (mSTC-1 [1]): 0.85 µM and 0.51 µM
EC50 (hNCI-H716 [2]; [6]): > 40 µM
EC50 (hNCI-H716 [3]): > 40 µM
EC50 (mSTC-1 [5]): > 40 µM
Compound: CC1(C)C(=O)C[C@@]2(C)c3ccccc3N(Cc3ccccc3)[C@@]12C [Compound 30]
activation at 2 µM (mSTC-1 [1]; 2 μM, single point, read-out: Primary SP mSTC (% Stim.)): 49.9%
activation at 20 µM (mSTC-1 [1]; 20 μM, single point, read-out: Primary SP mSTC (% Stim.)): 49.9%
activation at 2 µM (hNCI-H716 [2]; 2 μM, GLP-1 secretion): 3.1%
activation at 20 µM (hNCI-H716 [2]; 20 μM, GLP-1 secretion): -0.2%
